Data: paper PMC5218480 (PLoS ONE, 2017)

Tested on: MV-4-11 cells
Assay: Gene expression microarray analysis (Affymetrix PrimeView) and GSEA
Format: cell-based, human
Set-up: RFU PODN (11730768_x_at) / Fold change /veh PODN (11730768_x_at) / RFU LINC00158 (11744669_a_at) / Fold change /veh LINC00158 (11744669_a_at) / RFU DUSP10 (11751237_a_at) / Fold change /veh DUSP10 (11751237_a_at) / RFU ID3 (11757404_x_at) / Fold change /veh ID3 (11757404_x_at) / RFU PLEKHG5 (11737974_s_at) / Fold change /veh PLEKHG5 (11737974_s_at) / RFU LRRC4B (11730491_at) / Fold change /veh LRRC4B (11730491_at) / RFU GIMAP4 (11747438_a_at) / Fold change /veh GIMAP4 (11747438_a_at) / RFU KRT8 (11758183_x_at) / Fold change /veh KRT8 (11758183_x_at) / RFU CNN1 (11734310_a_at) / Fold change /veh CNN1 (11734310_a_at) / RFU VPS37D (11726825_at) / Fold change /veh VPS37D (11726825_at) / RFU C10orf10 (11716522_x_at) / Fold change /veh C10orf10 (11716522_x_at) / RFU KIR2DL2 /// KIR2DL4 /// KIR2DL5A /// KIR2DL5B /// KIR2DS1 /// KIR2DS2 /// KIR2DS3 /// KIR2DS4 /// KIR3DL3 /// KIR3DL3 /// KIR3DS1 (11738374_at) / Fold change /veh KIR2DL2 /// KIR2DL4 /// KIR2DL5A /// KIR2DL5B /// KIR2DS1 /// KIR2DS2 /// KIR2DS3 /// KIR2DS4 /// KIR3DL3 /// KIR3DL3 /// KIR3DS1 (11738374_at) / RFU C1QL1 (11718748_at) / Fold change /veh C1QL1 (11718748_at) / RFU TMPRSS4 (11747572_a_at) / Fold change /veh TMPRSS4 (11747572_a_at) / RFU HAMP (11756126_x_at) / Fold change /veh HAMP (11756126_x_at) / RFU RNFT2 (11725882_a_at) / Fold change /veh RNFT2 (11725882_a_at) / RFU NR4A2 (11747474_a_at) / Fold change /veh NR4A2 (11747474_a_at) / RFU ABCC12 (11746883_a_at) / Fold change /veh ABCC12 (11746883_a_at) / RFU TMEM136 (11760407_x_at) / Fold change /veh TMEM136 (11760407_x_at) / RFU CLDN22 /// WWC2 (11732394_at) / Fold change /veh CLDN22 /// WWC2 (11732394_at) / RFU HLA-DPB1 (11760878_x_at) / Fold change /veh HLA-DPB1 (11760878_x_at) / RFU SPINT1 (11716480_a_at) / Fold change /veh SPINT1 (11716480_a_at) / RFU GAP43 (11754022_s_at) / Fold change /veh GAP43 (11754022_s_at) / RFU A4GNT (11735810_at) / Fold change /veh A4GNT (11735810_at) / RFU PRB3 (11715151_x_at) / Fold change /veh PRB3 (11715151_x_at) / RFU TUBB4B (11761932_at) / Fold change /veh TUBB4B (11761932_at) / RFU CAPN14 (11732068_a_at) / Fold change /veh CAPN14 (11732068_a_at) / RFU TMCC2 (11721928_a_at) / Fold change /veh TMCC2 (11721928_a_at) / RFU IRGQ (11745062_a_at) / Fold change /veh IRGQ (11745062_a_at) / RFU FAM174B (11720279_a_at) / Fold change /veh FAM174B (11720279_a_at) / RFU TMPRSS4 (11748680_a_at) / Fold change /veh TMPRSS4 (11748680_a_at) / RFU FAM212B (11763350_a_at) / Fold change /veh FAM212B (11763350_a_at) / RFU PLEKHG5 (11743358_a_at) / Fold change /veh PLEKHG5 (11743358_a_at) / RFU ZSCAN30 (11745921_a_at) / Fold change /veh ZSCAN30 (11745921_a_at) / RFU CMKLR1 (11741424_a_at) / Fold change /veh CMKLR1 (11741424_a_at) / RFU LOC101060620 /// MAPK8IP1 (11723275_at) / Fold change /veh LOC101060620 /// MAPK8IP1 (11723275_at) / RFU SPTSSB (11747773_x_at) / Fold change /veh SPTSSB (11747773_x_at) / RFU PRSS12 (11739890_at) / Fold change /veh PRSS12 (11739890_at) / RFU BIN1 (11741810_x_at) / Fold change /veh BIN1 (11741810_x_at) / RFU WNT11 (11732464_a_at) / Fold change /veh WNT11 (11732464_a_at) / RFU C10orf10 (11716521_a_at) / Fold change /veh C10orf10 (11716521_a_at) / RFU C5orf56 (11738089_at) / Fold change /veh C5orf56 (11738089_at) / RFU CYB561 (11721691_x_at) / Fold change /veh CYB561 (11721691_x_at) / RFU ANKRD19P (11752326_a_at) / Fold change /veh ANKRD19P (11752326_a_at) / RFU OR2T12 /// OR2T33 /// OR2T8 (11738714_s_at) / Fold change /veh OR2T12 /// OR2T33 /// OR2T8 (11738714_s_at) / RFU VCAN (11748164_a_at) / Fold change /veh VCAN (11748164_a_at) / RFU JSRP1 (11732532_at) / Fold change /veh JSRP1 (11732532_at) / RFU KRTAP10-11 (11738290_x_at) / Fold change /veh KRTAP10-11 (11738290_x_at) / RFU MYO3A (11730013_a_at) / Fold change /veh MYO3A (11730013_a_at) / RFU EBF3 (11725865_a_at) / Fold change /veh EBF3 (11725865_a_at) / RFU CAMK2N1 (11719241_x_at) / Fold change /veh CAMK2N1 (11719241_x_at) / RFU C5orf56 (11738088_a_at) / Fold change /veh C5orf56 (11738088_a_at) / RFU OLFML3 (11715873_a_at) / Fold change /veh OLFML3 (11715873_a_at) / RFU LOC100653217 /// NTM (11731650_a_at) / Fold change /veh LOC100653217 /// NTM (11731650_a_at) / RFU MAPK11 (11762145_a_at) / Fold change /veh MAPK11 (11762145_a_at) / RFU FIZ1 (11724087_x_at) / Fold change /veh FIZ1 (11724087_x_at) / RFU OASL (11726364_x_at) / Fold change /veh OASL (11726364_x_at) / RFU SOX15 (11748057_x_at) / Fold change /veh SOX15 (11748057_x_at) / RFU CD79A (11719716_a_at) / Fold change /veh CD79A (11719716_a_at) / RFU HIST1H1D (11736915_at) / Fold change /veh HIST1H1D (11736915_at) / RFU CASKIN2 (11723855_a_at) / Fold change /veh CASKIN2 (11723855_a_at) / RFU LOC730098 (11760151_x_at) / Fold change /veh LOC730098 (11760151_x_at) / RFU OR4N2 (11742367_at) / Fold change /veh OR4N2 (11742367_at) / RFU PRRT2 (11749266_a_at) / Fold change /veh PRRT2 (11749266_a_at) / RFU SNX32 (11753110_a_at) / Fold change /veh SNX32 (11753110_a_at) / RFU CDHR5 (11726645_a_at) / Fold change /veh CDHR5 (11726645_a_at) / RFU RCAN1 (11760418_a_at) / Fold change /veh RCAN1 (11760418_a_at) / RFU FAM167A (11723789_a_at) / Fold change /veh FAM167A (11723789_a_at) / RFU FAM26E (11764081_at) / Fold change /veh FAM26E (11764081_at) / RFU ISYNA1 (11749810_s_at) / Fold change /veh ISYNA1 (11749810_s_at) / RFU ACY1 (11761880_at) / Fold change /veh ACY1 (11761880_at) / RFU 11764098_at / Fold change /veh 11764098_at / RFU SAMD14 (11745864_x_at) / Fold change /veh SAMD14 (11745864_x_at) / RFU NPB (11741838_a_at) / Fold change /veh NPB (11741838_a_at) / RFU TMPRSS6 (11731388_a_at) / Fold change /veh TMPRSS6 (11731388_a_at) / RFU KRTAP10-2 (11738614_at) / Fold change /veh KRTAP10-2 (11738614_at) / RFU ARHGAP8 /// PRR5-ARHGAP8 (11727945_x_at) / Fold change /veh ARHGAP8 /// PRR5-ARHGAP8 (11727945_x_at) / RFU KRTAP5-7 /// NADSYN1 (11734609_at) / Fold change /veh KRTAP5-7 /// NADSYN1 (11734609_at) / RFU RASL12 (11751679_a_at) / Fold change /veh RASL12 (11751679_a_at) / RFU CDKN2B (11736163_a_at) / Fold change /veh CDKN2B (11736163_a_at) / RFU PRF1 (11729649_at) / Fold change /veh PRF1 (11729649_at) / RFU, ZNF638 /// ZNF638-IT1 / Fold change vs veh, ZNF638 /// ZNF638-IT1 / RFU, PANK3 / Fold change vs veh, PANK3 / RFU, SH3YL1 / Fold change vs veh, SH3YL1 / RFU, ZEB2 / Fold change vs veh, ZEB2 / RFU, NRIP1 / Fold change vs veh, NRIP1 / RFU, PTTG1IP / Fold change vs veh, PTTG1IP / RFU, CAPN2 / Fold change vs veh, CAPN2 / RFU, MED14 / Fold change vs veh, MED14 / RFU, SNORA58 / Fold change vs veh, SNORA58 / RFU, C1orf63 / Fold change vs veh, C1orf63 / RFU, LRRFIP1 / Fold change vs veh, LRRFIP1 / RFU, NDUFAF7 / Fold change vs veh, NDUFAF7 / RFU, SLC12A2 / Fold change vs veh, SLC12A2 / RFU, IBTK / Fold change vs veh, IBTK / RFU, ESF1 / Fold change vs veh, ESF1 / Fold change vs veh, TMEM50B / RFU, TAOK1 / Fold change vs veh, TAOK1 / RFU, ACBD3 / Fold change vs veh, ACBD3 / RFU, TMA16 / Fold change vs veh, TMA16 / RFU, RWDD3 / Fold change vs veh, RWDD3 / RFU, BCAT1 / Fold change vs veh, BCAT1 / RFU, EDEM3 / Fold change vs veh, EDEM3 / RFU, TMEM33 / Fold change vs veh, TMEM33 / RFU, WDR75 / Fold change vs veh, WDR75 / RFU, AHCTF1 / Fold change vs veh, AHCTF1 / RFU, TFRC / Fold change vs veh, TFRC / RFU, ZDHHC17 / Fold change vs veh, ZDHHC17 / RFU, NOM1 / Fold change vs veh, NOM1 / RFU, ARL8B / Fold change vs veh, ARL8B / RFU, ZBTB11 / Fold change vs veh, ZBTB11 / RFU, TAMM41 / Fold change vs veh, TAMM41 / RFU, KIAA1704 /// LOC100996395 / Fold change vs veh, KIAA1704 /// LOC100996395 / RFU, ING1 / Fold change vs veh, ING1 / RFU, TRMT61B / Fold change vs veh, TRMT61B / RFU, FUBP3 / Fold change vs veh, FUBP3 / RFU, TP53 / Fold change vs veh, TP53 / RFU, TNKS2 / Fold change vs veh, TNKS2 / RFU, ZFP14 / Fold change vs veh, ZFP14 / RFU, ACTR2 / Fold change vs veh, ACTR2 / RFU, PPP3R1 / Fold change vs veh, PPP3R1 / RFU, PIK3R1 / Fold change vs veh, PIK3R1 / RFU, HNRNPA1 / Fold change vs veh, HNRNPA1 / RFU, RNF170 / Fold change vs veh, RNF170 / RFU, ZNF28 / Fold change vs veh, ZNF28 / RFU, RNGTT / Fold change vs veh, RNGTT / RFU, OGT / Fold change vs veh, OGT / RFU, BRD1 / Fold change vs veh, BRD1 / RFU, MARS / Fold change vs veh, MARS / RFU, ZNF655 / Fold change vs veh, ZNF655 / RFU, FAHD1 / Fold change vs veh, FAHD1 / RFU, BDP1 / Fold change vs veh, BDP1 / RFU, LRRCC1 / Fold change vs veh, LRRCC1 / RFU, ARID1A / Fold change vs veh, ARID1A / RFU, ZNF146 / Fold change vs veh, ZNF146 / RFU, ZNF330 / Fold change vs veh, ZNF330 / RFU, GPN3 / Fold change vs veh, GPN3 / RFU, C9orf123 / Fold change vs veh, C9orf123 / RFU, N4BP2L2 / Fold change vs veh, N4BP2L2 / RFU, ARFIP1 / Fold change vs veh, ARFIP1 / RFU, FAM179B / Fold change vs veh, FAM179B / RFU, BCL10 / Fold change vs veh, BCL10 / RFU, UHRF1BP1L / Fold change vs veh, UHRF1BP1L / RFU, BET1 / Fold change vs veh, BET1 / RFU, CNOT2 / Fold change vs veh, CNOT2 / RFU, ZNF268 / Fold change vs veh, ZNF268 / Fold change vs veh, ZNF507 / RFU, DGCR2 / Fold change vs veh, DGCR2 / RFU, WDSUB1 / Fold change vs veh, WDSUB1 / Fold change vs veh, HSP90B1 /// MIR3652 / RFU, ADSS / Fold change vs veh, ADSS / RFU, GK / Fold change vs veh, GK / RFU, ZNF148 / Fold change vs veh, ZNF148 / RFU, TAF9 / Fold change vs veh, TAF9 / RFU, SLC1A5 / Fold change vs veh, SLC1A5 / RFU, SLMO2 / Fold change vs veh, SLMO2 / RFU, ABCC4 / Fold change vs veh, ABCC4 / RFU, LOC101060439 /// RAP1B / Fold change vs veh, LOC101060439 /// RAP1B / RFU, RFX7 / Fold change vs veh, RFX7 / RFU, GTPBP10 / Fold change vs veh, GTPBP10 / RFU, CNEP1R1 / Fold change vs veh, CNEP1R1 / RFU, BIVM-ERCC5 /// ERCC5 / Fold change vs veh, BIVM-ERCC5 /// ERCC5 / RFU, ILF3 / Fold change vs veh, ILF3 / RFU 11762660_at / Fold change /veh 11762660_at / RFU VCAN (11757783_s_at) / Fold change /veh VCAN (11757783_s_at) / RFU DDX43 (11728927_at) / Fold change /veh DDX43 (11728927_at) / RFU KRT8 (11758188_x_at) / Fold change /veh KRT8 (11758188_x_at) / RFU NKD1 (11759106_at) / Fold change /veh NKD1 (11759106_at) / RFU SRD5A1 (11742802_a_at) / Fold change /veh SRD5A1 (11742802_a_at) / RFU TPSAB1 /// TPSB2 (11721975_s_at) / Fold change /veh TPSAB1 /// TPSB2 (11721975_s_at) / RFU GSTM3 (11746129_a_at) / Fold change /veh GSTM3 (11746129_a_at) / RFU IL23R (11737362_x_at) / Fold change /veh IL23R (11737362_x_at) / RFU TMEM51 (11727254_a_at) / Fold change /veh TMEM51 (11727254_a_at) / RFU PIWIL2 (11732686_x_at) / Fold change /veh PIWIL2 (11732686_x_at) / RFU ORM1 (11744905_x_at) / Fold change /veh ORM1 (11744905_x_at) / RFU CCDC152 (11743942_at) / Fold change /veh CCDC152 (11743942_at) / RFU ECM1 (11717891_a_at) / Fold change /veh ECM1 (11717891_a_at) / RFU IL23R (11748794_a_at) / Fold change /veh IL23R (11748794_a_at) / RFU TNFAIP8L3 (11732012_x_at) / Fold change /veh TNFAIP8L3 (11732012_x_at) / RFU MBOAT4 (11741988_at) / Fold change /veh MBOAT4 (11741988_at) / RFU 11764193_at / Fold change /veh 11764193_at / RFU TMEM53 (11763286_at) / Fold change /veh TMEM53 (11763286_at) / RFU MAGEB2 (11727129_at) / Fold change /veh MAGEB2 (11727129_at) / RFU TMEM200A (11744735_a_at) / Fold change /veh TMEM200A (11744735_a_at) / RFU CCDC152 (11751479_a_at) / Fold change /veh CCDC152 (11751479_a_at) / RFU FAM211A (11726209_a_at) / Fold change /veh FAM211A (11726209_a_at) / RFU RGS16 (11746705_a_at) / Fold change /veh RGS16 (11746705_a_at) / RFU VCAN (11755009_s_at) / Fold change /veh VCAN (11755009_s_at) / RFU RHOB (11743442_s_at) / Fold change /veh RHOB (11743442_s_at) / RFU RGS16 (11720943_a_at) / Fold change /veh RGS16 (11720943_a_at) / RFU RGS16 (11720944_at) / Fold change /veh RGS16 (11720944_at) / RFU, VPS4B / Fold change vs veh, VPS4B / RFU, CREB1 / Fold change vs veh, CREB1 / RFU, DNAJC13 / Fold change vs veh, DNAJC13 / RFU, GNAQ / Fold change vs veh, GNAQ / RFU, CDK5R1 / Fold change vs veh, CDK5R1 / RFU, ZRANB3 / Fold change vs veh, ZRANB3 / RFU, CUL4A / Fold change vs veh, CUL4A / RFU, CCNY / Fold change vs veh, CCNY / RFU, UFL1 / Fold change vs veh, UFL1 / RFU, COG3 / Fold change vs veh, COG3 / RFU, DIAPH2 / Fold change vs veh, DIAPH2 / RFU, SKA2 / Fold change vs veh, SKA2 / RFU, AFF3 / Fold change vs veh, AFF3 / RFU, LMF1 / Fold change vs veh, LMF1 / RFU, IPO11 / Fold change vs veh, IPO11 / RFU, DFFB / Fold change vs veh, DFFB / RFU, FOXP1 / Fold change vs veh, FOXP1 / RFU, CARD8 / Fold change vs veh, CARD8 / RFU, STRN3 / Fold change vs veh, STRN3 / RFU, ADK / Fold change vs veh, ADK / RFU, RASSF2 / Fold change vs veh, RASSF2 / RFU, WIPF1 / Fold change vs veh, WIPF1 / RFU, LARP1B / Fold change vs veh, LARP1B / RFU, RASA1 / Fold change vs veh, RASA1 / RFU, RB1 / Fold change vs veh, RB1 / RFU, PPFIA1 / Fold change vs veh, PPFIA1 / RFU, MAT2A / Fold change vs veh, MAT2A / RFU, CCT5 / Fold change vs veh, CCT5 / RFU, WDR92 / Fold change vs veh, WDR92 / RFU, CUX1 / Fold change vs veh, CUX1 / RFU, TTC7A / Fold change vs veh, TTC7A / RFU, TMEM135 / Fold change vs veh, TMEM135 / RFU, DEPTOR / Fold change vs veh, DEPTOR / RFU, CPM / Fold change vs veh, CPM / RFU, DNAJB6 / Fold change vs veh, DNAJB6 / RFU, CACNA2D3 / Fold change vs veh, CACNA2D3 / RFU, DTX4 / Fold change vs veh, DTX4 / RFU, TFCP2 / Fold change vs veh, TFCP2 / RFU, GMCL1 /// GMCL1P1 / Fold change vs veh, GMCL1 /// GMCL1P1 / RFU, AEBP2 / Fold change vs veh, AEBP2 / RFU, SNHG1 /// SNORD22 /// SNORD25 /// SNORD26 /// SNORD27 /// SNORD28 /// SNORD29 /// SNORD31 / Fold change vs veh, SNHG1 /// SNORD22 /// SNORD25 /// SNORD26 /// SNORD27 /// SNORD28 /// SNORD29 /// SNORD31 / Fold change (Aza/veh), C12orf56 (ProbeSet 11735607_a_at) / Fold change (ACY-1035/veh), C12orf56 (ProbeSet 11735607_a_at) / Fold change (Aza/veh), FGFR1OP (ProbeSet 11751329_s_at) / Fold change (ACY-1035/veh), FGFR1OP (ProbeSet 11751329_s_at) / Fold change (Aza/veh), VPS36 (ProbeSet 11739960_a_at) / Fold change (ACY-1035/veh), VPS36 (ProbeSet 11739960_a_at) / RFU SYPL1 (11715823_x_at) / Fold change /veh SYPL1 (11715823_x_at) / RFU IGFBP7 (11715501_s_at) / Fold change /veh IGFBP7 (11715501_s_at) / RFU REEP3 (11722064_at) / Fold change /veh REEP3 (11722064_at) / RFU IGLL1 (11728026_x_at) / Fold change /veh IGLL1 (11728026_x_at): dose or concentration left out as unconfirmed
Conditions: MV-4-11 cells, 48 hours

SMILES: Nc1ncn([C@@H]2O[C@H](CO)[C@@H](O)[C@H]2O)c(=O)n1 [azacitidine]
- RFU KRT8 (11758188_x_at): 23.78 RFU
